Data reported in patent publication US12077503B2, “Substituted cyclic amides and their use as herbicides” (FMC CORPORATION, priority 2015, dated 2024).

What was measured:
Format in all cases: in vivo
Kochia (Kochia scoparia) [1] = experiment: Test A preemergence; details: Preemergence; for Plant response rating, Kochia: 125 g ai/ha, visual injury after approximately 10 d, 0 to 100 scale where 0 is no effect and 100 is complete control; for Kochia plant response rating (0 to 100 scale, 0 is no effect, 100 is complete control): 500 g ai/ha, visual injury approx. 10 d
From the text: (§1) Seeds of plant species selected from barnyardgrass (Echinochloa crus-galli), Kochia (Kochia scoparia), ragweed (common ragweed, Ambrosia elatior), ryegrass, Italian (Italian ryegrass, Lolium multiflorum), crabgrass, large (Digitaria sanguinalis), giant foxtail (Setaria faberii), green foxtail (Setaria viridis), morningglory (Ipomoea spp.), pigweed (Amaranthus retroflexus), velvetleaf (Abutilon theophrasti), wheat (Triticum aestivum), and corn (Zea mays) were planted into a blend of loam soil and sand and treated preemergence with a directed soil spray using test chemicals formulated in anon-phytotoxic solvent mixture which included a surfactant.
(§2) At the same time, plants selected from these crop and weed species and also blackgrass (Alopecurus myosuroides), and Galium (catchweed bedstraw, Galium aparine) were planted in pots containing the same blend of loam soil and sand and treated with postemergence applications of test chemicals formulated in the same manner. Plants ranged in height from 2 to 10 cm and were in the one- to two-leaf stage for the postemergence treatment. Treated plants and untreated controls were maintained in a greenhouse for approximately 10 d, after which time all treated plants were compared to untreated controls and visually evaluated for injury. Plant response ratings, summarized in Table A, are based on a 0 to 100 scale where 0 is no effect and 100 is complete control. A dash (-) response means no test result.

[2] = test system: barnyardgrass (Echinochloa crus-galli); experiment: Test A preemergence; details: Preemergence; for Plant response rating, Barnyardgrass: 125 g ai/ha, visual injury after approximately 10 d, 0 to 100 scale where 0 is no effect and 100 is complete control; for Barnyardgrass plant response rating (0 to 100 scale, 0 is no effect, 100 is complete control): 500 g ai/ha, visual injury approx. 10 d
From the text: as §1, §2

[3] = test system: giant foxtail (Setaria faberii); experiment: Test A preemergence; details: Preemergence; for Plant response rating, Foxtail, Giant: 125 g ai/ha, visual injury after approximately 10 d, 0 to 100 scale where 0 is no effect and 100 is complete control; for Foxtail, Giant plant response rating (0 to 100 scale, 0 is no effect, 100 is complete control): 500 g ai/ha, visual injury approx. 10 d
From the text: as §1, §2

[4] = test system: pigweed (Amaranthus retroflexus); experiment: Test A preemergence; details: Preemergence; for Plant response rating, Pigweed: 125 g ai/ha, visual injury after approximately 10 d, 0 to 100 scale where 0 is no effect and 100 is complete control; for Pigweed plant response rating (0 to 100 scale, 0 is no effect, 100 is complete control): 500 g ai/ha, visual injury approx. 10 d
From the text: as §1, §2

[5] = test system: ragweed (common ragweed, Ambrosia elatior); experiment: Test A preemergence; details: Preemergence; for Plant response rating, Ragweed: 125 g ai/ha, visual injury after approximately 10 d, 0 to 100 scale where 0 is no effect and 100 is complete control; for Ragweed plant response rating (0 to 100 scale, 0 is no effect, 100 is complete control): 500 g ai/ha, visual injury approx. 10 d
From the text: as §1, §2

[6] = test system: ryegrass, Italian (Italian ryegrass, Lolium multiflorum); experiment: Test A preemergence; details: Preemergence; for Plant response rating, Ryegrass, Italian: 125 g ai/ha, visual injury after approximately 10 d, 0 to 100 scale where 0 is no effect and 100 is complete control; for Ryegrass, Italian plant response rating (0 to 100 scale, 0 is no effect, 100 is complete control): 500 g ai/ha, visual injury approx. 10 d
From the text: as §1, §2

[7] = test system: Galium (catchweed bedstraw, Galium aparine); experiment: Test A postemergence; details: for Galium plant response rating: 125 g ai/ha, postemergence, visual injury rating on 0 to 100 scale (0 no effect, 100 complete control), approx. 10 d; for Plant response rating, Galium: Postemergence, 500 g ai/ha, 0 to 100 scale where 0 is no effect and 100 is complete control
From the text: as §1, §2

Kochia (Kochia scoparia) [8] = experiment: Test A postemergence; details: for Kochia plant response rating: 125 g ai/ha, postemergence, visual injury rating on 0 to 100 scale (0 no effect, 100 complete control), approx. 10 d; for Plant response rating, Kochia: Postemergence, 500 g ai/ha, 0 to 100 scale where 0 is no effect and 100 is complete control
From the text: as §1, §2

[9] = test system: barnyardgrass (Echinochloa crus-galli); experiment: Test A postemergence; details: for Barnyardgrass plant response rating: 125 g ai/ha, postemergence, visual injury rating on 0 to 100 scale (0 no effect, 100 complete control), approx. 10 d; for Plant response rating, Barnyardgrass: Postemergence, 500 g ai/ha, 0 to 100 scale where 0 is no effect and 100 is complete control
From the text: as §1, §2

[10] = test system: blackgrass (Alopecurus myosuroides); experiment: Test A postemergence; details: for Blackgrass plant response rating: 125 g ai/ha, postemergence, visual injury rating on 0 to 100 scale (0 no effect, 100 complete control), approx. 10 d; for Plant response rating, Blackgrass: Postemergence, 500 g ai/ha, 0 to 100 scale where 0 is no effect and 100 is complete control
From the text: as §1, §2

corn (Zea mays) = experiment: Test A postemergence; details: for Corn plant response rating: 125 g ai/ha, postemergence, visual injury rating on 0 to 100 scale (0 no effect, 100 complete control), approx. 10 d; for Plant response rating, Corn: Postemergence, 500 g ai/ha, 0 to 100 scale where 0 is no effect and 100 is complete control
From the text: as §1, §2

[11] = test system: giant foxtail (Setaria faberii); experiment: Test A postemergence; details: for Foxtail, Giant plant response rating: 125 g ai/ha, postemergence, visual injury rating on 0 to 100 scale (0 no effect, 100 complete control), approx. 10 d; for Plant response rating, Foxtail, Giant: Postemergence, 500 g ai/ha, 0 to 100 scale where 0 is no effect and 100 is complete control
From the text: as §1, §2

[12] = test system: pigweed (Amaranthus retroflexus); experiment: Test A postemergence; details: for Pigweed plant response rating: 125 g ai/ha, postemergence, visual injury rating on 0 to 100 scale (0 no effect, 100 complete control), approx. 10 d; for Plant response rating, Pigweed: Postemergence, 500 g ai/ha, 0 to 100 scale where 0 is no effect and 100 is complete control
From the text: as §1, §2

[13] = test system: ragweed (common ragweed, Ambrosia elatior); experiment: Test A postemergence; details: for Ragweed plant response rating: 125 g ai/ha, postemergence, visual injury rating on 0 to 100 scale (0 no effect, 100 complete control), approx. 10 d; for Plant response rating, Ragweed: Postemergence, 500 g ai/ha, 0 to 100 scale where 0 is no effect and 100 is complete control
From the text: as §1, §2

[14] = test system: ryegrass, Italian (Italian ryegrass, Lolium multiflorum); experiment: Test A postemergence; details: for Ryegrass, Italian plant response rating: 125 g ai/ha, postemergence, visual injury rating on 0 to 100 scale (0 no effect, 100 complete control), approx. 10 d; for Plant response rating, Ryegrass, Italian: Postemergence, 500 g ai/ha, 0 to 100 scale where 0 is no effect and 100 is complete control
From the text: as §1, §2

[15] = test system: wheat (Triticum aestivum); experiment: Test A postemergence; details: for Wheat plant response rating: 125 g ai/ha, postemergence, visual injury rating on 0 to 100 scale (0 no effect, 100 complete control), approx. 10 d; for Plant response rating, Wheat: Postemergence, 500 g ai/ha, 0 to 100 scale where 0 is no effect and 100 is complete control
From the text: as §1, §2

[16] = test system: barnyardgrass (Echinochloa crus-galli); experiment: Test B flooded paddy test; details: Flood, 250 g ai/ha; 0 to 100 scale where 0 is no effect and 100 is complete control; 13 to 15 d
Protocol: (§3) Plant species in the flooded paddy test selected from rice (Oryra sativa), sedge, umbrella (small-flower umbrella sedge, Cyperus difformis), ducksalad (Heteranthera limosa), and barnyardgrass (Echinochloa crus-galli) were grown to the 2-leaf stage for testing. At time of treatment, test pots were flooded to 3 cm above the soil surface, treated by application of test compounds directly to the paddy water, and then maintained at that water depth for the duration of the test. Treated plants and controls were maintained in a greenhouse for 13 to 15 d, after which time all species were compared to controls and visually evaluated. Plant response ratings, summarized in Table B, are based on a scale of 0 to 100 where 0 is no effect and 100 is complete control. A dash (-) response means no test result.

[17] = test system: ducksalad (Heteranthera limosa); experiment: Test B flooded paddy test; details: Flood, 250 g ai/ha; 0 to 100 scale where 0 is no effect and 100 is complete control; 13 to 15 d
Protocol: as §3

rice (Oryra sativa) = experiment: Test B flooded paddy test; details: Flood, 250 g ai/ha; 0 to 100 scale where 0 is no effect and 100 is complete control; 13 to 15 d
Protocol: as §3

[18] = test system: sedge, umbrella (small-flower umbrella sedge, Cyperus difformis); experiment: Test B flooded paddy test; details: Flood, 250 g ai/ha; 0 to 100 scale where 0 is no effect and 100 is complete control; 13 to 15 d
Protocol: as §3

Row | SMILES | Plant response rating, Kochia (Kochia (Kochia scoparia) [1]) | Kochia plant response rating (0 to 100 scale, 0 is no effect, 100 is complete control) (Kochia (Kochia scoparia) [1]) | Plant response rating, Barnyardgrass [2] | Barnyardgrass plant response rating (0 to 100 scale, 0 is no effect, 100 is complete control) [2] | Plant response rating, Foxtail, Giant [3] | Foxtail, Giant plant response rating (0 to 100 scale, 0 is no effect, 100 is complete control) [3] | Plant response rating, Pigweed [4] | Pigweed plant response rating (0 to 100 scale, 0 is no effect, 100 is complete control) [4] | Plant response rating, Ragweed [5] | Ragweed plant response rating (0 to 100 scale, 0 is no effect, 100 is complete control) [5] | Plant response rating, Ryegrass, Italian [6] | Ryegrass, Italian plant response rating (0 to 100 scale, 0 is no effect, 100 is complete control) [6] | Galium plant response rating [7] | Plant response rating, Galium [7] | Kochia plant response rating (Kochia (Kochia scoparia) [8]) | Plant response rating, Kochia (Kochia (Kochia scoparia) [8]) | Barnyardgrass plant response rating [9] | Plant response rating, Barnyardgrass [9] | Blackgrass plant response rating [10] | Plant response rating, Blackgrass [10] | also measured
1 | CC(C)c1ccc(C2CNC(=O)C2C(=O)Nc2ccccc2S(C)(=O)=O)cc1 (racemic) [Compound 500] | 50 | 50 | 0 | 40 | 80 | 90 | 0 | 20 | 0 | 0 | 0 | 0 | 0 | 0 | 0 | 20 | 0 | 50 | 0 | 0 | Corn plant response rating (corn (Zea mays)): 0; Plant response rating, Corn (corn (Zea mays)): 20; Foxtail, Giant plant response rating [11]: 0; Plant response rating, Foxtail, Giant [11]: 50; Pigweed plant response rating [12]: 0; Plant response rating, Pigweed [12]: 0; Ragweed plant response rating [13]: 0; Plant response rating, Ragweed [13]: 40; Ryegrass, Italian plant response rating [14]: 0; Plant response rating, Ryegrass, Italian [14]: 0; Wheat plant response rating [15]: 0; Plant response rating, Wheat [15]: 20; Plant response rating, Barnyardgrass [16]: 0; Plant response rating, Ducksalad [17]: 65; Plant response rating, Rice (rice (Oryra sativa)): 0; Plant response rating, Sedge, Umbrella [18]: 0
2 | O=C1NCC(c2ccc(C3CC3)cc2)C1C(=O)Nc1cccc(F)c1F (racemic) [Compound 501] | 0 | 30 | 80 | 90 | 80 | 90 | 0 | 20 | 0 | 50 | 0 | 0 | 0 | 0 | 0 | 0 | 50 | 80 | 30 | 40 | Corn plant response rating (corn (Zea mays)): 0; Plant response rating, Corn (corn (Zea mays)): 30; Foxtail, Giant plant response rating [11]: 70; Plant response rating, Foxtail, Giant [11]: 80; Pigweed plant response rating [12]: 0; Plant response rating, Pigweed [12]: 0; Ragweed plant response rating [13]: 0; Plant response rating, Ragweed [13]: 0; Ryegrass, Italian plant response rating [14]: 0; Plant response rating, Ryegrass, Italian [14]: 20; Wheat plant response rating [15]: 0; Plant response rating, Wheat [15]: 0; Plant response rating, Barnyardgrass [16]: 20; Plant response rating, Ducksalad [17]: 85; Plant response rating, Rice (rice (Oryra sativa)): 0; Plant response rating, Sedge, Umbrella [18]: 0
3 | Cc1ccc(C2CNC(=O)C2C(=O)Nc2ccc(F)cc2F)c(F)c1 (racemic) [Compound 508] | 0 | 0 | 70 | 90 | 40 | 70 | 0 | 0 | 0 | 0 | 0 | 0 | 0 | 20 | 0 | 20 | 70 | 90 | 0 | 0 | Corn plant response rating (corn (Zea mays)): 0; Plant response rating, Corn (corn (Zea mays)): 20; Foxtail, Giant plant response rating [11]: 0; Plant response rating, Foxtail, Giant [11]: 40; Pigweed plant response rating [12]: 0; Plant response rating, Pigweed [12]: 20; Ragweed plant response rating [13]: 0; Plant response rating, Ragweed [13]: 0; Ryegrass, Italian plant response rating [14]: 0; Plant response rating, Ryegrass, Italian [14]: 0; Wheat plant response rating [15]: 0; Plant response rating, Wheat [15]: 20; Plant response rating, Barnyardgrass [16]: 0; Plant response rating, Ducksalad [17]: 50; Plant response rating, Rice (rice (Oryra sativa)): 0; Plant response rating, Sedge, Umbrella [18]: 0
